Measured values as given in the supplement of paper PMC10307832.

Legend:
Assay in all cases: relative viability (nuclei count vs DMSO), 5 days (fraction); higher = more cells survive
[1] = compound: C1=CC2=NC=CN=C2C=C1/C=C/3\C(=O)NC(=O)S3 + COc1cccc2cc(-c3nc([C@H]4CC[C@H](C(=O)O)CC4)n4ncnc(N)c34)[nH]c12 [OSI-027] (partner 0.5 µM)
In short: (§1)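 Lung cancer cell lines, seeded in 1536-well plates, were treated the following day by pin tool with a single drug or with five library-drug doses (not always all listed) in √10 steps on top of a fixed anchor-drug dose. Cells were fixed and nuclei stained in one step after 5 days, and nuclei were counted. Relative viability is the nuclei count for treated wells divided by that for vehicle wells, reported as medians of duplicate plates.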

[2] = compound: C1=CC2=NC=CN=C2C=C1/C=C/3\C(=O)NC(=O)S3 + O=C(CCCCCCC(=O)Nc1ccccc1)NO [Vorinostat] (partner 1 µM)
In short: as §1

[3] = compound: CCN1CCN(c2ccc(Nc3cc(N(C)C(=O)Nc4c(Cl)c(OC)cc(OC)c4Cl)ncn3)cc2)CC1 [BGJ398] + CC1(C)CCC(c2ccc(Cl)cc2)=C(CN2CCN(c3ccc(C(=O)NS(=O)(=O)c4ccc(N[C@H](CCN5CCOCC5)CSc5ccccc5)c(S(=O)(=O)C(F)(F)F)c4)cc3)CC2)C1 [Navitoclax] (partner 0.5 µM)
In short: as §1

[4] = compound: CCN1CCN(c2ccc(Nc3cc(N(C)C(=O)Nc4c(Cl)c(OC)cc(OC)c4Cl)ncn3)cc2)CC1 [BGJ398] + C[C@]1(O)C[C@@H](c2nc(-c3ccc4ccc(-c5ccccc5)nc4c3)c3c(N)nccn32)C1 [Linsitinib] (partner 1 µM)
In short: as §1

Cell Line	relative viability ([1]; first compound 0.02 µM)	relative viability ([1]; first compound 0.06325 µM)	relative viability ([1]; first compound 0.2 µM)	relative viability ([1]; first compound 0.6325 µM)	relative viability ([1]; first compound 2 µM)	relative viability ([2]; first compound 0.02 µM)	relative viability ([2]; first compound 0.06325 µM)	relative viability ([2]; first compound 0.2 µM)	relative viability ([2]; first compound 0.6325 µM)	relative viability ([2]; first compound 2 µM)	relative viability ([3]; first compound 0.01 µM)	relative viability ([3]; first compound 0.03162 µM)	relative viability ([3]; first compound 0.1 µM)	relative viability ([3]; first compound 0.3162 µM)	relative viability ([3]; first compound 1 µM)	relative viability ([4]; first compound 0.01 µM)	relative viability ([4]; first compound 0.03162 µM)	relative viability ([4]; first compound 0.1 µM)	relative viability ([4]; first compound 0.3162 µM)	relative viability ([4]; first compound 1 µM)
LK-2	0.225	0.23	0.201	0.184	0.147	0.245	0.353	0.37	0.213	0.169	0.72	0.733	0.726	0.529	0.317	0.519	0.438	0.242	0.214	0.171
LOU-NH91	0.726	0.767	0.673	0.681	0.464	0.965	0.887	0.987	0.908	0.727	0.685	0.402	0.668	0.427	0.701	0.903	0.539	0.933	0.557	0.911
LU99A	0.298	0.332	0.295	0.293	0.218	0.425	0.515	0.506	0.42	0.268	0.769	0.755	0.696	0.724	0.512	0.524	0.47	0.575	0.51	0.441
LXF-289	0.744	0.756	0.788	0.804	0.395	0.778	0.576	0.73	0.778	0.852	0.933	0.905	0.892	0.873	0.831	0.944	0.886	0.883	0.84	0.899
NCI-H23	0.518	0.58	0.661	0.618	0.27	0.508	0.588	0.697	0.546	0.385	0.874	0.765	0.848	0.896	0.865	0.582	0.597	0.564	0.568	0.48
NCI-H322M	0.546	0.478	0.497	0.53	0.384	0.893	0.852	0.905	0.891	0.744	1.23	1.26	1.05	1.2	1.31	0.863	0.788	0.978	0.935	0.999
NCI-H441	0.742	0.695	0.759	0.669	0.405	0.794	0.786	0.948	0.845	0.509	0.577	0.795	0.501	0.604	0.722	0.526	0.569	0.7	0.486	0.484
NCI-H460	0.727	1	0.781	0.525	0.394	0.657	0.668	0.759	0.716	0.819	1.01	1.11	1.4	1.12	1.33	0.714	0.838	0.916	0.895	0.92
NCI-H520	0.25	0.356	0.249	0.27	0.36	0.879	0.834	0.645	0.802	0.677	1.11	1.04	0.833	0.633	0.547	0.934	0.922	0.735	0.435	0.367
NCI-H596	0.749	0.542	0.875	0.677	0.532	0.581	0.59	0.646	0.499	0.6	0.96	0.645	0.698	0.73	0.614	0.864	1	1.12	0.957	0.942
NCI-H647	0.531	0.84	0.633	0.532	0.515	0.545	0.898	0.485	0.546	0.494	0.97	1.26	1.4	1.14	1.01	1.06	1.29	1.26	1.17	1.08
NCI-H727	0.624	0.598	0.686	0.575	0.343	1.23	1.15	1.23	1.22	0.679	0.487	0.485	0.337	0.547	0.453	0.345	0.281	0.286	0.291	0.301
NCI-H838	0.448	0.437	0.438	0.399	0.226	0.674	0.702	0.762	0.686	0.579	1.08	1.11	1.03	0.907	0.917	0.94	0.979	0.927	0.919	0.716
NCI-H1355	0.383	0.338	0.402	0.396	0.258	0.584	0.571	0.623	0.631	0.519	0.955	0.92	0.996	0.914	0.825	0.741	0.807	0.827	0.779	0.823
NCI-H1395	0.667	0.64	0.738	0.588	0.583	1	0.733	0.824	0.77	0.668	1.08	1.36	1.13	0.996	0.848	1.15	1.24	0.977	0.939	0.797
NCI-H1437	0.941	0.995	0.922	0.784	0.197	0.728	0.874	0.815	0.811	0.815	1.1	1.12	1.07	1.08	1.06	0.999	0.995	1.04	1.05	1.06
